Results as given in US20110312914A1, “CARBON MONOXIDE REMOVAL AGENT” (priority 2009, published 2011).

Experiments:
Serum albumin (RSA) = biological target: T1, Serum albumin (RSA) (Rattus norvegicus, UniProt P02770); experiment: ultraviolet-visible titration of FeTPPS solution with RSA solution; assay type: binding; conditions: 5×10^−6 M FeTPPS, PBS buffer pH 7.4
T1 construct: purchased SIGMA; Co., Ltd
Excerpt: Serum albumin (RSA) is a protein component of the highest content in blood and is known to have a property of taking in various hydrophobic molecules. FeTPPS is not an exception and is known to bind strongly to serum albumin (see, for example, V. E. Yushmanov et al, Mag. Res. Imaging, 14, 255-261 (1996), T. T. Tominaga et al, J. Inorg. Biochem., 65, 235-244 (1997), etc.). The effect of inducing urinary excretion of FeTPPS by Py3CD was thus compared with that by RSA. Specifically, an experiment was performed as follows.
FeTPPS was dissolved in a PBS buffer (pH 7.4) to prepare a 5 μM solution, and Py3CD and RSA (made by SIGMA. Co., Ltd.) were separately dissolved in the PBS buffer (pH 7.4) to prepare respective stock solutions. Ultraviolet-visible absorption spectra were measured with the same apparatuses as those used in EXAMPLE 1.
The FeTPPS solution was placed in a cuvette, ultraviolet-visible absorption spectra were measured while adding fixed amounts of the RSA solution to the cuvette, and at a point at which changes reached saturation, ultraviolet-visible absorption spectra were measured while adding the Py3CD solution in place of the RSA solution. FIG. 4(a) is a diagram showing the changes in the ultraviolet-visible absorption spectra and FIG. 4(b) is a titration plot.

[1] = diafiltration test, kidney model using an ultrafiltration membrane (molecular weight cutoff 30,000); assay type: in vitro ADME
Protocol: The mechanism by which the carbon monoxide removal agent according to the present invention is excreted from blood into urine via kidneys was examined by way of a kidney model using an ultrafiltration membrane. Specifically, an experiment was performed as follows.
FeTPPS, RSA, and Py3CD (procured from the same firms as in EXAMPLE 3) were respectively dissolved in a PBS buffer (pH 7.4) to prepare 0.22 μM solutions. Also, ultraviolet-visible absorption spectra were measured using the same apparatuses as in EXAMPLE 1. As the ultrafiltration membrane, a stirred cell (Model 8050 made by Millipore Corp.) with an ultrafiltration membrane with a molecular weight cutoff of 30,000 attached was used.
Equivalent amounts of the FeTPPS solution and the RSA solution were mixed to prepare an equimolar mixture, and the equimolar mixture solution was placed in the stirred cell that was set above a recovery beaker. While pressurizing with nitrogen gas, a filtrate was recovered at every fixed amount and subject to ultraviolet-visible absorption spectral analysis.
At a point at which 20 mL of the filtrate was recovered, the Py3CD solution was added so that the molar amount of Py3CD was equal to the molar amount of each of FeTPPS and RSA in the residual solution. […]

[2] = effect of the cyclodextrin dimer on the urinary excretion of porphyrins, absorbance at 420 nm of urine; assay type: in vivo; conditions: rat, medical agent containing just the porphyrin (0.5 mM) administered, before Py3CD
Protocol: The influence that the cyclodextrin dimer has on the excretion of the carbon monoxide removal agent in urine was examined. Specifically, each of the porphyrins was administered solitarily into a rat and absorbance at 420 nm, at which each administered porphyrin has a strong absorption band, was measured to examine the amount of the porphyrin excreted into urine. Also, after administration of each porphyrin, the cyclodextrin dimer was administered and the influence thereof was examined. Specifically, an experiment was performed as follows.
Commercially available FeTPPS (made by Frontier Scientific Inc.) and TPPS (made by Tokyo Chemical Industry Co., Ltd.) with the central metal removed from FeTPPS were respectively dissolved separately to a concentration of 0.5 mM in a PBS buffer (pH 7.4) and thereby prepared as medical agents. Also, a Py3CD solution was prepared by dissolving Py3CD to a concentration of 0.6 mM in the PBS buffer (pH 7.4). Further, ultraviolet-visible absorption spectra were measured using the same apparatuses as in EXAMPLE 1.
The medical agent containing FeTPPS was administered continuously to a rat by the syringe pump (1 mL/min). By the same method as in EXAMPLE 1, urine was sampled every 30 minutes from the start of administration and the change with time of the absorbance at 420 nm was examined. […]

T1 sequence (P02770 25-608): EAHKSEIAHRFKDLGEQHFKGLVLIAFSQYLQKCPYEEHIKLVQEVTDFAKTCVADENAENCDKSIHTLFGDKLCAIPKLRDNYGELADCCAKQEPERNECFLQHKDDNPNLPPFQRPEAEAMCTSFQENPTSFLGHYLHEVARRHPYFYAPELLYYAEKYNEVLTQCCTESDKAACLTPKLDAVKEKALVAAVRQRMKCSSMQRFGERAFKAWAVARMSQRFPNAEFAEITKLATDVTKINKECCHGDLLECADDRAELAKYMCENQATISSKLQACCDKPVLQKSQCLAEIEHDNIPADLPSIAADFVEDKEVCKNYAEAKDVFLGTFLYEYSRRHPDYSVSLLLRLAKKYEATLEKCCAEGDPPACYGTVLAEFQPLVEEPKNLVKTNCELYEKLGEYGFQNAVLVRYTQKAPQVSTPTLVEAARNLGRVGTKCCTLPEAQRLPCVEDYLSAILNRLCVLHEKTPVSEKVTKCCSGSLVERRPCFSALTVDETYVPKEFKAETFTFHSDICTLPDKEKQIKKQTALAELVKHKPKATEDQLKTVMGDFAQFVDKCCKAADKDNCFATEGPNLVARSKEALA

Row | Molecule | RSA amount at which the spectral changes reach saturation (Serum albumin (RSA)) | number of FeTPPS molecules that can bind to a single RSA molecule (Serum albumin (RSA)) | passage through the ultrafiltration membrane ([1]; FeTPPS held by RSA (equimolar mixture), before Py3CD addition) | passage through the ultrafiltration membrane ([1]; FeTPPS released from RSA by addition of Py3CD and included in Py3CD) | excretion of porphyrin in urine [2]
1 | 5,10,15,20-tetrakis(4-sulfonatophenyl)porphyrin (II) iron complex [FeTPPS] | approximately ⅓ | approximately three | cannot pass through the ultrafiltration membrane | capable of passing through the ultrafiltration membrane | not excreted at all in urine
2 | O=S(=O)(O)c1ccc(-c2c3nc(c(-c4ccc(S(=O)(=O)O)cc4)c4ccc([nH]4)c(-c4ccc(S(=O)(=O)O)cc4)c4nc(c(-c5ccc(S(=O)(=O)O)cc5)c5ccc2[nH]5)C=C4)C=C3)cc1 [TPPS, reference compound] | – | – | – | – | not excreted at all in urine
